Test results: the NIST ThermoML archive (doi:10.1016/j.jct.2013.08.011)
± gives the expanded uncertainty stated by the source.

Tests used:
[1] = Liquid; for mass density: 293.15 K, 101.33 kPa, Vibrating tube method; for Normal boiling temperature: Ebulliometric method (Recirculating still)
[2] = refractive index (Na D-line) (dimensionless); details: 293.15 K; 101.33 kPa; Liquid; Standard Abbe refractometry

SMILES | mass density [1] | Normal boiling temperature [1] | refractive index [2]
CC#N [acetonitrile] | 783.4 ± 2 kg/m3 | 81.50 ± 0.2 °C | 1.3445 ± 0.0007
OCCO [1,2-ethanediol] |  | 197.48 ± 0.2 °C | 1.4324 ± 0.0007
CCCO [propan-1-ol] | 804.1 ± 2 kg/m3 | 97.30 ± 0.2 °C | 1.3865 ± 0.0007
